Results taken from ChEMBL document CHEMBL2094269, “WEHI/Eskitis Trypanosoma b. brucei screening data”.
Several values for one entry are separate records, joined by “and”; a condition that tells them apart may be missing. Equal entries are not always repeated.

Assays:
[1] = DNDI: Cytotoxicity against human MRC-5 lung fibroblast cells.; settings: IC50
[2] = test system: Trypanosoma brucei brucei; experiment: microbe, parasite or virus in culture; format: functional, organism-based, STIB 795
Description: DNDI: Inhibition of Human African Trypanosomiasis (HAT), STIB 795, in vitro

Compound	IC50 [1] [µM]	IC50 ([2]; Trypanosoma brucei, STIB 795) [µM]	IC50 [2]
N=c1n(Cc2ccccc2)c2ccccc2n1CC(O)COc1ccccc1 (stereo not given)	> 41.7	7.55	–
CCN1CCN(C(c2cccnc2)c2cc(Cl)c3cccnc3c2O)CC1 (stereo not given)	> 41.7	5.83	–
CCCCC(=O)NC(c1ccc(N(C)C)cc1)c1ccc2cccnc2c1O (stereo not given)	> 20.8	5.84	–
CC(C)C1CC(CCNCc2ccc(N(C)C)cc2)(c2ccccc2)CCO1 (stereo not given)	> 41.7	5.22	–
C=CCN1C(=O)C(O)(CC(=O)c2ccco2)c2cc(Br)ccc21 (stereo not given)	> 41.7	0.483	–
CCCOc1cccc(C(=O)Nc2cccc(-c3nc4ncccc4o3)c2C)c1	> 4.17	0.662	–
CCN(CC)CCNc1cc(C)nc2c1C(=O)C(=O)C=C2N1CCCCC1	6.25	4.07	–
CN(CCCNC(=O)c1n[nH]c2c1COc1ccccc1-2)C1CCCCC1	> 20.8	5.06	–
COc1ccc(C2=Nn3c([n+](C)c4cc(C)c(C)cc43)SC2)cc1OC	> 20.8	5.33	–
Brc1ccc(-c2nc(N3CCNCC3)c3ccccc3n2)cc1	> 10.4	2.83	–
Cc1cc(C)c(OCCCCCCN2CCNCC2)c(Br)c1	> 20.8	1.02	–
CCOC(=O)c1c(CN2CCOCC2)oc2c1C(=O)C(=O)c1ccccc1-2	> 20.8	0.846	–
CCCCN1/C(=C/c2cc[n+](CC)c3ccccc23)C=Cc2cc(C)ccc21	> 10.4	0.831	–
CCCC[n+]1c(/C=C2/C=CN(CC)c3ccc(C)cc32)ccc2ccccc21	> 4.17	0.362	–
O=C(O/N=C(/NCc1ccccc1)c1ccc(Cl)cc1)c1cccs1	> 41.7	0.47	–
CCOC(=O)N1CCN(C2=C(NC(C)=O)C(=O)c3ccccc3C2=O)CC1	> 41.7	5.36	–
COc1cc(C(=O)Nc2nc(-c3ccccn3)cs2)cc(OC)c1OC	> 41.7	4.6	–
CCc1c(C)nc(-n2nc(C)cc2NC(=O)c2ccccc2Cl)[nH]c1=O	> 20.8	2.88	–
O=C1CC(Sc2nc(-c3ccco3)cc(C(F)(F)F)n2)C2COC1O2 (stereo not given)	> 20.8	–	12 µM and 5.11 µM
CC(Cc1ccco1)NC(=O)c1cccc(NC(=O)C2=CSCCO2)c1 (stereo not given)	> 41.7	5.79	–
Cc1cc(C2=CC(C)(C)NC(C)(C)C2)sc1C1=CC(C)(C)NC(C)(C)C1	> 41.7	4.82	–

Compound	IC50 [1] [µM]	IC50 ([2]; Trypanosoma brucei, STIB 795) [µM]	IC50 [2]
CC(C)C1N=C(c2ccc3c(c2)OCO3)CC(c2cc(Cl)ccc2O)N1 (stereo not given)	> 41.7	5.58	–
CCOc1ccc2nc3cc(NCc4ccccc4OC)ccc3c(N)c2c1	> 20.8	4.58	–
COC(=O)c1ccc2c(c1)C(C)(C)C(/C=C/c1c(C)[nH]c3ccccc13)=[N+]2C	> 4.17	2.97	–
CC(C)n1c(=N)n(CCOc2ccc(Br)cc2)c2ccccc21	> 4.17	2.02	–
CCC1=C(C)c2cc3nc(C(=O)OCc4ccccc4)c(C)c-3c(C)n2C1C (stereo not given)	> 41.7	5.66	–
CC1(C)CC2CC(C)(CN2C(=O)COCc2cc(-c3cccs3)on2)C1 (stereo not given)	> 41.7	5.44	–
Cc1ccccc1OCCn1c(=N)n(Cc2ccccc2F)c2ccccc21	> 20.8	4.95	–
CCOC(=O)c1ccc(CCCCCON2C(N)=NC(N)=NC2(C)C)cc1	> 1.04	1.05	–
CCOc1cc2c(cc1OCC)C(c1ccc(Br)cc1)NCC2 (stereo not given)	> 41.7	5.55	–
O=C(CS(=O)(=O)c1ccc(F)cc1)Nc1nc(-c2ccccn2)cs1	> 10.4	0.791	–
N=c1n(CCOc2ccccc2)c2ccccc2n1Cc1ccc(Cl)cc1	> 41.7	6.63	–
Cc1ccc(-c2cc(C(F)F)nc(SC3CC(=O)C4OCC3O4)n2)cc1 (stereo not given)	> 41.7	–	> 10.4 µM and 5.2 µM
CC(C)Cc1nc(NCCC2CCCN2C)c2cnn(-c3ccccc3)c2n1 (stereo not given)	> 20.8	2.66	–
COc1ccc(-c2cs/c(=N\CC3CCNCC3)n2-c2ccccc2)cc1	> 20.8	5.74	–
CN(C)c1ccc(/C=C/c2cc(-c3ccccc3)n(-c3ccccc3)[n+]2C)cc1	> 20.8	0.68	–
COc1ccccc1C(CCNC(C)c1ccccc1)C1CCOC(C)(C)C1 (stereo not given)	> 41.7	4.74	–
C=CCN(CC=C)Cc1c(O)ccc2c(=O)c(-c3ccccc3Cl)coc12	> 41.7	5.19	5.3 µM
O=C(N/N=C/c1cc(I)ccc1O)c1ccccc1O	> 4.17	44.4	–
CC(O)CN1C(=O)c2ccc3c4c(ccc(c24)C1=O)C(=O)N(CC(C)O)C3=O (stereo not given)	> 41.7	5.05	–
CC(C)(C)c1cc(C(c2ccccn2)N2CCOCC2)cc(C(C)(C)C)c1O (stereo not given)	> 41.7	10.6	–
COc1ccccc1C(=O)c1sc(Nc2ccc3c(c2)OCCO3)nc1N	> 1.04	≤ 1.08	–

Compound	IC50 [1] [µM]	IC50 ([2]; Trypanosoma brucei, STIB 795) [µM]	IC50 [2]
COc1ccccc1C(NC(=O)c1ccccc1)c1ccc2cccnc2c1O (stereo not given)	> 10.4	5.68	–
Oc1c(/C=N/NC(=S)Nc2cccc(F)c2)cc2c3c1CCCN3CCC2	> 41.7	3.08	–
Fc1ccc(C(CCCN2CCN3CCCCC3C2)c2ccc(F)cc2)cc1 (stereo not given)	> 41.7	5.31	–
O=C(N/N=C/c1c(O)ccc2ccccc12)c1cc(Br)ccc1O	> 4.17	3.77	–
Cc1ccc2c(c1)OCC(CC(=O)NCCN(C)C)N2Cc1ccc(F)cc1 (stereo not given)	> 4.17	2.2	–
CC(C)c1ccc(-c2csc(NC(=O)C3C4CCC(O4)C3C(=O)O)n2)cc1 (stereo not given)	> 41.7	1.56	0.879 µM
CC(=O)Nc1ccc(C)cc1S(=O)(=O)NCCn1c(C)nc2ccccc21	> 41.7	4.83	–
CCS(=O)(=O)N1CCCc2ccc(NS(=O)(=O)c3cccs3)cc21	> 41.7	0.796	–
Cc1c(Br)c(C(=O)N/N=C/c2c(O)ccc3ccccc23)nn1C	> 20.8	≤ 10.4	–
COc1ccc(C2(CCNCc3ccc(Cl)cc3)CCOC(C)(C)C2)cc1 (stereo not given)	> 41.7	7.61	–
O=C1CC(n2nnn(-c3ccc(OC(F)(F)F)cc3)c2=S)C2COC1O2 (stereo not given)	> 41.7	4.99	–
O=C(NC(c1ccco1)c1cc(Cl)c2cccnc2c1O)c1cccnc1 (stereo not given)	> 20.8	0.053	–
CCCCn1c(=N)n(CC(O)c2ccc(Br)cc2)c2ccccc21 (stereo not given)	> 20.8	5.24	5.32 µM
CCC1(C)CC(CCNCc2ccccc2O)(c2ccc(F)cc2)CCO1 (stereo not given)	> 41.7	4.73	–
CN(C)CCCn1c(N)c(-c2nc3ccccc3[nH]2)c2nc(C#N)c(C#N)nc21	> 41.7	4.08	–
CCCCC(=O)NC(c1cccs1)c1cc(Cl)c2cccnc2c1O (stereo not given)	> 41.7	0.666	–
O=C(NC(c1ccccc1F)c1ccc2cccnc2c1O)c1ccccc1 (stereo not given)	> 4.17	6.12	–
COc1ccccc1N1CCN(Cc2cc(Cl)c3cccnc3c2O)CC1	> 4.17	6.05	> 10.4 µM
CCOc1ccc(N(C(C)=O)C2=C(N(C)C)C(=O)c3ccccc3C2=O)cc1	> 4.17	5.11	–
Oc1cccnc1NC(c1ccc(Cl)cc1)c1ccc2cccnc2c1O (stereo not given)	> 41.7	4.02	–
CCN1/C(=C/C=C/C2=[N+](C)c3ccc(C)cc3C2(C)C)C=Cc2ccccc21	> 4.17	0.239	–
